Test results taken from patent US20260234147A1 (priority 2023, published 2026).
Like-named read-outs stand apart in the source and are kept apart here.

Experiments:
hKOR = hKOR (Homo sapiens, UniProt P41145); assay: Radioligand binding assay (Eurofins Cerep), [3H]U69,593 displacement
hDOR = hDOR (Homo sapiens, UniProt P41143); assay: Radioligand binding assay (Eurofins Cerep), [3H]DADLE displacement
hMOR = hMOR (Homo sapiens, UniProt P35372); assay: Radioligand binding assay (Eurofins Cerep), [3H]DAMGO displacement
hMOR, sequence (P35372 whole entry): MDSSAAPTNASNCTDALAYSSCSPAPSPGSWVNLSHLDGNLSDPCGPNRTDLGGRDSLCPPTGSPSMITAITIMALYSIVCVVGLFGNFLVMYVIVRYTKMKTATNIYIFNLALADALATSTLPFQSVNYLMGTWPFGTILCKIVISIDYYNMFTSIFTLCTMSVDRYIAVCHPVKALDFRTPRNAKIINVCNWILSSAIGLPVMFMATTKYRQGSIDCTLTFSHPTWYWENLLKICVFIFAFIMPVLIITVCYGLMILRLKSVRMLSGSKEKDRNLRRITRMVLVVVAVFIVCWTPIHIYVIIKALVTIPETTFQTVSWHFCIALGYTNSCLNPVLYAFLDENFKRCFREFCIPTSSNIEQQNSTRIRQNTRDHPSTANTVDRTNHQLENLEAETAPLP

α2A adrenergic receptor = biological target: T1, α2A adrenergic receptor (Homo sapiens, UniProt P08913); assay: Radioligand binding assay (Eurofins Cerep), [3H]RX 821002 displacement
T1 construct: Eurofins Cerep (contract screening)
T1 sequence (P08913 1-465): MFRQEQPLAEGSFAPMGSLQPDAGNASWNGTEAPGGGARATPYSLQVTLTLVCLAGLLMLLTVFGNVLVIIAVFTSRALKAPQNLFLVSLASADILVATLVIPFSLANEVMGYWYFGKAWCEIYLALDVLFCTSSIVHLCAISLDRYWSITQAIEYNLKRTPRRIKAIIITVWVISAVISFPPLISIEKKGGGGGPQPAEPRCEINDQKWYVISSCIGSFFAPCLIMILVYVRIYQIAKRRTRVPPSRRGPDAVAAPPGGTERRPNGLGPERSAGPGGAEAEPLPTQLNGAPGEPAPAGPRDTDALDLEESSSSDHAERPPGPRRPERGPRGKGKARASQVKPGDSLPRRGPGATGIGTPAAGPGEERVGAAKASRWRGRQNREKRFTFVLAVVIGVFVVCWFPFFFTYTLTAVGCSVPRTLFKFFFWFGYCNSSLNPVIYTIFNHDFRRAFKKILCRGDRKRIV

[1] = Table 3-5, 3 independent experiments, read-out: Ki (nM ± SEM) KOR
[2] = Table 3-5, 3 independent experiments, read-out: Ki (nM ± SEM) DOR
[3] = Table 3-5, 3 independent experiments, read-out: Ki (nM ± SEM) MOR
[4] = Table 3-5, 3 independent experiments, read-out: Ki (nM ± SEM) a2A-ar
[5] = Table 3-6, 3 independent experiments, read-out: Ki (nM ± SEM) KOR
[6] = Table 3-6, 3 independent experiments, read-out: Ki (nM ± SEM) DOR
[7] = Table 3-6, 3 independent experiments, read-out: Ki (nM ± SEM) MOR
[8] = Ki (nM ± SEM) DOR, Table 3-6, 3 independent experiments
[9] = Ki (nM ± SEM) a2A-AR, Table 3-6, 3 independent experiments
[10] = Table B2, mean ± SEM, 3 independent experiments, read-out: MOR Ki ± SEM
[11] = Alpha2A Ki ± SEM (nM), Table B2, mean ± SEM, 3 independent experiments
[12] = Table A4, data summary #2, read-out: KOR Ki ± SEM
[13] = Table A4, data summary #2, read-out: DOR Ki ± SEM
[14] = Table A4, data summary #2, read-out: MOR Ki ± SEM

hKOR, sequence (P41145 whole entry): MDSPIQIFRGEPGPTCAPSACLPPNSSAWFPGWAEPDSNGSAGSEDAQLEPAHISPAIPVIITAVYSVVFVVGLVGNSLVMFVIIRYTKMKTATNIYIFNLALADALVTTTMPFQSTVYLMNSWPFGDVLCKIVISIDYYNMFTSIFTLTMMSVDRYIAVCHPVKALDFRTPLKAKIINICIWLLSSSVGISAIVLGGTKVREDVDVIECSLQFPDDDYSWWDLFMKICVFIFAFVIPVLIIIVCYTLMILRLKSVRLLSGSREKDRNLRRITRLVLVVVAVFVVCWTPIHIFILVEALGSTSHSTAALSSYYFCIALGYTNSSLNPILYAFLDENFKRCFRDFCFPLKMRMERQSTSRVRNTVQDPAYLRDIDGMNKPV
hDOR, sequence (P41143 whole entry): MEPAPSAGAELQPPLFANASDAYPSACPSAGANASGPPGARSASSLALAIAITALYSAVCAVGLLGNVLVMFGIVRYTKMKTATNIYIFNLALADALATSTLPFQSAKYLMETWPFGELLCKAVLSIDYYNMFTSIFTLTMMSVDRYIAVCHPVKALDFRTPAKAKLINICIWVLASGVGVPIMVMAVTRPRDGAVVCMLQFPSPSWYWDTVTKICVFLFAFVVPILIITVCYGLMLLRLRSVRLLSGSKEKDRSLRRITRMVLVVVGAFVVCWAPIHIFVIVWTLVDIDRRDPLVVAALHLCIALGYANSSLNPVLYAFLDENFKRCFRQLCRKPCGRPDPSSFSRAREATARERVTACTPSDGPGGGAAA

COC=C(C(=O)OC)C1CCN(Cc2ccccc2)CC1 [Compound 3-50]
Ki (hKOR; Table 3-4, 3 independent experiments, read-out: Ki (nM ± SEM) KOR): 5700 ± 558 nM
Ki (hDOR; Table 3-4, 3 independent experiments, read-out: Ki (nM ± SEM) DOR): > 10000 nM
Ki (hMOR; Table 3-4, 3 independent experiments, read-out: Ki (nM ± SEM) MOR): > 10000 nM
Ki (α2A adrenergic receptor; Ki (nM ± SEM) a2A-AR, Table 3-4, 3 independent experiments): > 10000 nM

COC=C(C(=O)OC)C1CCN(Cc2c[nH]c3ccccc23)CC1 [Compound 3-57]
Ki (hKOR; [1]): > 10000 nM
Ki (hDOR; [2]): > 10000 nM
Ki (hMOR; [3]): > 10000 nM
Ki (α2A adrenergic receptor; Ki (nM ± SEM) a2A-ar, Table 3-5, 3 independent experiments): 867 ± 370 nM

COC(=O)CC1CCN(Cc2c[nH]c3ccccc23)CC1 [Compound 3-58]
Ki (hKOR; [1]): 791 ± 216 nM
Ki (hDOR; [2]): > 10000 nM
SR: Selectivity Ratio (KiMOR/Kiα2A) (hMOR; Table 3-5): 0.78
Ki (hMOR; [3]): 2700 ± 580 nM
Ki (α2A adrenergic receptor; [4]): 3460 ± 428 nM

COC(=O)CC1CCN(CC(=O)c2c[nH]c3cccc(OC)c23)CC1 [Compound 3-63]
Ki (hKOR; [1]): > 10000 nM
Ki (hDOR; [2]): > 10000 nM
Ki (hMOR; [3]): > 10000 nM
Ki (α2A adrenergic receptor; [4]): 6370 ± 1160 nM

COC(=O)CN1CCN(CCc2c[nH]c3cccc(OC)c23)CC1 [Compound 3-65]
Ki (hKOR; [5]): > 10000 nM
Ki (hDOR; [6]): > 10000 nM
Ki (hMOR; [7]): > 10000 nM
Ki (α2A adrenergic receptor; Table 3-6, 3 independent experiments, read-out: Ki (nM ± SEM) a2A-AR): 265 ± 64.3 nM

COC(=O)CN1CCN(CCc2c[nH]c3ccccc23)CC1 [Compound 3-66]
Ki (hKOR; [5]): > 10000 nM
Ki (hDOR; [8]): > 10000 nM
SR: Selectivity Ratio (KiMOR/Kiα2A) (hMOR; Table 3-6): 0.21
Ki (hMOR; [7]): 2030 ± 694 nM
Ki (α2A adrenergic receptor; [9]): 9760 ± 4830 nM

COC(=O)NC1CCN(CCc2c[nH]c3ccccc23)CC1 [Compound 3-68]
Ki (hKOR; [5]): > 10000 nM
Ki (hDOR; [6]): > 10000 nM
SR: Selectivity Ratio (KiMOR/Kiα2A) (hMOR; Table 3-6): 0.37
Ki (hMOR; [7]): 1890 ± 454 nM
Ki (α2A adrenergic receptor; [9]): 5090 ± 730 nM

COCC(C(=O)OC)C1CCN(CCc2c[nH]c3ccccc23)CC1 (centres unmarked) [Compound 3-71]
Ki (hKOR; [5]): > 10000 nM
Ki (hDOR; [8]): > 10000 nM
SR: Selectivity Ratio (KiMOR/Kiα2A) (hMOR; Table 3-6): 2.02
Ki (hMOR; [7]): 5580 ± 1700 nM
Ki (α2A adrenergic receptor; [9]): 2760 ± 281 nM

COC(=O)CC1CCN2CCC(O)(c3ccccc3)CC2C1 (centres unmarked) [SG-01-049]
Ki (hMOR; [10]): 9810 ± 2860 nM
Ki (α2A adrenergic receptor; [11]): 80 ± 19 nM

COC(=O)C=C1CCN2CCC(O)(c3ccccc3)CC2C1 (centres unmarked) [SG-01-053]
Ki (hMOR; [10]): > 10000 nM
Ki (α2A adrenergic receptor; [11]): 95 ± 35 nM

CC[C@@H]1CN2CCc3c([nH]c4cccc(OC)c34)[C@@H]2C[C@@H]1/C(=C\OC)C(=O)n1cccc1 [SUSM-526]
Ki (hKOR; Table A1, data summary #1, read-out: KOR Ki ± SEM): 5800 ± 1390 nM
Ki (hKOR; [12]): > 10000 nM
Ki (hKOR; read-out: Ki at hKOR): 57900 nM
Ki (hDOR; [13]): > 10000 nM
Ki (hMOR; Table A1, data summary #1, read-out: MOR Ki ± SEM): 2160 ± 941 nM
Ki (hMOR; [14]): 719 ± 414 nM
Ki (hMOR; read-out: Ki at hMOR / opioid binding (converted)): 21600 nM
Ki (α2A adrenergic receptor; Table A4, data summary #2, read-out: Alpha2A Ki ± SEM): > 10000 nM

CC[C@@H]1CN2CCc3c([nH]c4cccc(OC)c34)[C@@H]2C[C@@H]1/C(=C\OC)C(=O)N1CCOCC1 [SUSM-527, (E)-2-((2S,3S,12bS)-3-ethyl-8-methoxy-1,2,3,4,6,7,12,12b-octahydroindolo[2,3-a]quinolizin-2-yl)-3-methoxy-1-morpholinoprop-2-en-1-one]
Ki (hDOR; [13]): > 10000 nM
Ki (hMOR; [14]): 1660 ± 427 nM

CC[C@@H]1CN2CCc3c([nH]c4cccc(OC)c34)[C@@H]2C[C@@H]1/C(=C\OC)C(=O)NCc1ccccc1 [SUSM-560]
Ki (hDOR; [13]): > 10000 nM
Ki (hMOR; [14]): 5320 ± 800 nM

CC[C@@H]1CN2CCc3c([nH]c4cccc(OC)c34)[C@@H]2C[C@@H]1/C(=C\OC)C(=O)N1CCNCC1 [SUSM-562, (E)-2-((2S,3S,12bS)-3-ethyl-8-methoxy-1,2,3,4,6,7,12,12b-octahydroindolo[2,3-a]quinolizin-2-yl)-3-methoxy-1-(piperazin-1-yl)prop-2-en-1-one]
Ki (hDOR): > 10000 nM
Ki (hMOR; [14]): 4210 ± 558 nM

CC[C@@H]1CN2CCc3c([nH]c4cccc(OC)c34)[C@@H]2C[C@@H]1/C(=C\OC)C(=O)N(C)Cc1ccccc1 [SUSM-563, (E)-N-benzyl-2-((2S,3S,12bS)-3-ethyl-8-methoxy-1,2,3,4,6,7,12,12b-octahydroindolo[2,3-a]quinolizin-2-yl)-3-methoxy-N-methylacrylamide]
Ki (hDOR; [13]): 4520 ± 1990 nM
Ki (hMOR; [14]): 5750 ± 770 nM

CC[C@@H]1CN2CCc3c([nH]c4cccc(OC)c34)[C@@H]2C[C@@H]1/C(=C\OC)C(=O)N1CCSCC1 [SUSM-564]
Ki (hDOR; [13]): > 10000 nM
Ki (hMOR; [14]): 134 ± 32 nM

[2H]C([2H])([2H])N(C(=O)/C(=C/OC)[C@H]1C[C@H]2c3[nH]c4cccc(OC)c4c3CCN2C[C@H]1CC)C([2H])([2H])[2H] [SUSM-566]
Ki (hKOR; [12]): 1800 ± 251 nM
Ki (hDOR; DOR Ki ± SEM (nM), Table A4, data summary #2): 8300 ± 3300 nM
Ki (hMOR; [14]): 330 ± 28 nM
Ki (α2A adrenergic receptor; Alpha2A Ki ± SEM (nM), Table A4, data summary #2): 1960 ± 535 nM
